Measured values as given in US8580833B2, “Substituted imidazole derivatives and methods of use thereof” (TransTech Pharma, Inc., priority 2009, dated 2013).
Counter-ions that a name gives are not always drawn. Like-named read-outs stand apart in the source and are kept apart here.

What was measured:
[1] = molecular target: T1, RAGE (sRAGE) with β-amyloid as the RAGE ligand (Homo sapiens, UniProt Q15109); assay: ELISA: inhibition of sRAGE binding to plate-bound β-amyloid; conditions: sRAGE 6 nM, hydrochloride salt form
T1 construct: generate soluble RAGE (sRAGE) comprised of the V and C domains
Procedure: (§1) The following assay method may be used to identify compounds of Formula (I) or pharmaceutically acceptable salts thereof which are useful as inhibitors of binding of physiological RAGE ligands, such as S100b and β-amyloid, to RAGE.
(§2) S100b, β-amyloid, or CML (500 ng/100 μL/well) in 100 mM sodium bicarbonate/sodium carbonate buffer (pH 9.8) is loaded onto the wells of a NUNC Maxisorp flat bottom 96-well microtitre plate. The plate is incubated at 4° C. overnight. The wells are aspirated and treated with 50 mM imidazole buffer saline (pH 7.2) (with 5 mM CaCl2/MgCl2) containing 1% bovine serum albumin (BSA) (300 μL/well) for 1 h at RT. The wells are aspirated.
(§3) Test compounds are dissolved in nanopure water (concentration: 10-100 μM). DMSO may be used as co-solvent. 25 μL of test compound solution in 4% DMSO is added, along with 75 μL sRAGE (6 nM FAC) to each well and samples are incubated for 1 h at 37° C. The wells are washed several times with 155 mM NaCl pH 7.2 buffer saline and are soaked for several seconds between each wash.
(§4) Non-radioactive detection is performed by adding:
(§5) 10 μL Biotinylated goat F(ab′)2 Anti-mouse IgG. (8.0×10-4 mg/mL, FAC), 5 μL Alk-phos-Streptavidin (3×10-3 mg/mL FAC), 0.42 μL per 5 mL Monoclonal antibody for sRAGE (FAC 6.0×10-3 mg/mL) to 5 mL 50 mM imidazole buffer saline (pH 7.2) containing 0.2% bovine serum albumin and 5 mM CaCl2. The mixture is incubated for 30 minutes at RT.
(§6) 100 μL of complex is added to each well and incubation is allowed to proceed at rt for 1 h. Wells are washed several times with wash buffer and soaked several seconds between each wash. 100 μL 1 mg/mL (pNPP) in 1 M diethanolamine (pH adjusted to 9.8 with HCl) is added. Color is allowed to develop in the dark for 30 min to 1 h at rt. The reaction is quenched with 10 μL of stop solution (0.5-1.0 N NaOH in 50% ethanol) and the absorbance is measured spectrophotometrically with a microplate reader at 405 nm.
(§7) IC50 (μM) of in the ELISA assay represents the concentration of compound at which 50% signal has been inhibited.

[2] = molecular target: T2, RAGE (sRAGE) with S100b as the RAGE ligand (Homo sapiens, UniProt Q15109); assay: ELISA: inhibition of sRAGE binding to plate-bound S100b; conditions: sRAGE 6 nM, hydrochloride salt form
T2 construct: generate soluble RAGE (sRAGE) comprised of the V and C domains
Procedure: as §1, §2, §3, §4, §5, §6, §7

[3] = Pharmacokinetic screening in rats, brain and plasma concentrations at 6 hour time point; format: in vivo; conditions: male, Sprague Dawley, rat, 5 mg/kg oral (PO), 6 hour time point; for concentration at 6 h: 2% Tween 80 in distilled water; for Kp at 6 h: brain/plasma ratio, read-out: B/P Ratio
Procedure: Pharmacokinetic screening in rats was performed on various compounds to measure brain and plasma concentrations at 6 hour time point.
The parameters for the pharmacokinetic protocol were as follows.
Amount of compound: 5 mg/kg
Species: Rat; Strain: Sprague Dawley; Sex: Male
Average body weight at dose: weight ranged from 271 to 423 grams
Average age at dose: age ranged from 9 to 14 weeks
Diet Status Overnight fasting
Number of Animals (n) for each time point: 2
Formulation: 2% Tween 80 in distilled water
Each formulation was administered once by oral gavage. The dose volume was 5 mL/kg for all animals. The actual volume administered to each animal was calculated and adjusted based on the most recent body weight.
Blood samples (approximately 300 μL whole blood) at (1, 2, and 4 h) was collected from each animal via tail vein except for terminal blood samples. Terminal blood (6 h) samples were collected via cardiac puncture. All samples were collected into tubes containing lithium heparin (Multivette 600 LH-Gel, Sarstedt, Newton, N.C., USA). Following collection, the tubes were placed in refrigerator (maximum 30 minutes) or until centrifugation under refrigeration (at 2 to 8° C.) at 1500 g for approximately 15 minutes. Each harvested plasma sample was then transferred into 1.2 mL polypropylene tubes, on the 96-Well Plate according to the 96-Well Plate plasma sample map and kept in freezer. Plasma samples were then analyzed for test substances.
Brain samples were collected immediately after the animals were euthanized at designated time points. Brain samples were rinsed with saline, blotted dry, and weighed. Brain samples were placed into individual containers and kept in freezer (−20° C.). Brain samples were then analyzed for test articles.
After analysis, all the plasma results are reported as ng/mL and brain sample results are reported as ng/g. In the table below, “ND” stands for not determined and “NA” stands for not applicable.

[4] = brain, read-out: Brain concentration
[5] = plasma, read-out: Plasma concentration

T2 sequence (Q15109 23-342 limits assumed): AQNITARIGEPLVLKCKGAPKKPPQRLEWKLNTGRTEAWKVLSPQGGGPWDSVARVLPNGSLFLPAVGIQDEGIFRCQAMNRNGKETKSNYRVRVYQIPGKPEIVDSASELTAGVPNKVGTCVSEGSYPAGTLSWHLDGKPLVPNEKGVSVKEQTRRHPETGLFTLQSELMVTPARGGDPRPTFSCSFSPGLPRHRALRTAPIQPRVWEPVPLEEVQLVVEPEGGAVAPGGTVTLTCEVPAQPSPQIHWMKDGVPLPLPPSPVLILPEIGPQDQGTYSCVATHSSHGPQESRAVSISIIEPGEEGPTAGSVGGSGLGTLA
T1 sequence (Q15109 23-342 limits assumed): as above

IC50 [1] [µM] | IC50 [2] [µM] | concentration at 6 h [3, 4] [ng/g] | concentration at 6 h [3, 5] [ng/mL] | Kp at 6 h [3] | SMILES
1.02 | 0.81 | 343 | 72 | 4.8 | CCCCc1nc(-c2ccc(OC[C@H](O)CNCC)cc2)cn1-c1ccc(Oc2ccc(Cl)cc2)cc1 [Example 11, (R)-1-(4-{2-butyl-1-[4-(4-chloro-phenoxy)-phenyl]-1H-imidazol-4-yl}-phenoxy)-3-ethylamino-propan-2-ol dihydrochloride]
1.26 | 0.8 | 2700 | 137 | 19.6 | CCOCc1nc(-c2ccc(OC[C@@H](O)CN(CC)CC)cc2)cn1-c1ccc(Oc2ccc(Cl)cc2)cc1 [Example 8, (S)-1-(4-{1-[4-(4-chloro-phenoxy)-phenyl]-2-ethoxymethyl-1H-imidazol-4-yl}-phenoxy)-3-diethylamino-propan-2-ol dihydrochloride]
2.16 | 4.61 |  |  |  | CCOCc1nc(-c2ccc(OC[C@H](O)CNC)cc2)cn1-c1ccc(Oc2ccc(Cl)cc2)cc1 [Example 13, (R)-1-(4-{1-[4-(4-chloro-phenoxy)-phenyl]-2-ethoxymethyl-1H-imidazol-4-yl}-phenoxy)-3-methylamino-propan-2-ol dihydrochloride]
0.65 | 0.54 | 610 | 74 | 8.8 | CCCCc1nc(-c2ccc(OC[C@@H](O)CN(CC)CC)cc2)cn1-c1ccc(Oc2ccc(Cl)cc2)cc1 [Example 4, (S)-1-(4-{2-butyl-1-[4-(4-chloro-phenoxy)-phenyl]-1H-imidazol-4-yl}-phenoxy)-3-diethylamino-propan-2-ol dihydrochloride]
1.02 | 0.71 | 3320 | 200 | 16.7 | CCOCc1nc(-c2ccc(OC[C@H](O)CN(C)C)cc2)cn1-c1ccc(Oc2ccc(Cl)cc2)cc1 [Example 5, (R)-1-(4-{1-[4-(4-chloro-phenoxy)-phenyl]-2-ethoxymethyl-1H-imidazol-4-yl}-phenoxy)-3-dimethylamino-propan-2-ol dihydrochloride]
1.17 | 1.05 | 1380 | 153 | 9.1 | CCOCc1nc(-c2ccc(OC[C@H](O)CN(CC)CC)cc2)cn1-c1ccc(Oc2ccc(Cl)cc2)cc1 [Example 7, (R)-1-(4-{1-[4-(4-chloro-phenoxy)-phenyl]-2-ethoxymethyl-1H-imidazol-4-yl}-phenoxy)-3-diethylamino-propan-2-ol dihydrochloride]
1.59 | 1.13 | 537 | 76 | 7.2 | CCCCc1nc(-c2ccc(OC[C@H](O)CNC)cc2)cn1-c1ccc(Oc2ccc(Cl)cc2)cc1 [Example 9, (R)-1-(4-{2-butyl-1-[4-(4-chloro-phenoxy)-phenyl]-1H-imidazol-4-yl}-phenoxy)-3-methylamino-propan-2-ol dihydrochloride]
0.76 | 0.55 | 718 | 24 | 30.6 | CCCCc1nc(-c2ccc(OC[C@H](O)CN(CC)CC)cc2)cn1-c1ccc(Oc2ccc(Cl)cc2)cc1 [Example 2, (R)-1-(4-{2-butyl-1-[4-(4-chloro-phenoxy)-phenyl]-1H-imidazol-4-yl}-phenoxy)-3-diethylamino-propan-2-ol dihydrochloride]
1.19 | 0.98 | 540 | 124 | 4.5 | CCCCc1nc(-c2ccc(OC[C@@H](O)CNCC)cc2)cn1-c1ccc(Oc2ccc(Cl)cc2)cc1 [Example 12, (S)-1-(4-{2-butyl-1-[4-(4-chloro-phenoxy)-phenyl]-1H-imidazol-4-yl}-phenoxy)-3-ethylamino-propan-2-ol dihydrochloride]
2.37 | 4.56 |  |  |  | CCOCc1nc(-c2ccc(OC[C@@H](O)CNC)cc2)cn1-c1ccc(Oc2ccc(Cl)cc2)cc1 [Example 14, (S)-1-(4-{1-[4-(4-chloro-phenoxy)-phenyl]-2-ethoxymethyl-1H-imidazol-4-yl}-phenoxy)-3-methylamino-propan-2-ol dihydrochloride]
0.78 | 0.77 | 3900 | 155 | 25.3 | CCOCc1nc(-c2ccc(OC[C@@H](O)CN(C)C)cc2)cn1-c1ccc(Oc2ccc(Cl)cc2)cc1 [Example 6, (S)-1-(4-{1-[4-(4-chloro-phenoxy)-phenyl]-2-ethoxymethyl-1H-imidazol-4-yl}-phenoxy)-3-dimethylamino-propan-2-ol dihydrochloride]
1.32 | 1.14 | 212 | 74 | 2.9 | CCCCc1nc(-c2ccc(OC[C@@H](O)CNC)cc2)cn1-c1ccc(Oc2ccc(Cl)cc2)cc1 [Example 10, (S)-1-(4-{2-butyl-1-[4-(4-chloro-phenoxy)-phenyl]-1H-imidazol-4-yl}-phenoxy)-3-methylamino-propan-2-ol dihydrochloride]
1.55 | 3.13 |  |  |  | CCNC[C@H](O)COc1ccc(-c2cn(-c3ccc(Oc4ccc(Cl)cc4)cc3)c(COCC)n2)cc1 [Example 16, (S)-1-(4-{1-[4-(4-chloro-phenoxy)-phenyl]-2-ethoxymethyl-1H-imidazol-4-yl}-phenoxy)-3-ethylamino-propan-2-ol dihydrochloride]
0.8 | 0.84 | 1120 | 48 | 23.3 | CCCCc1nc(-c2ccc(OC[C@@H](O)CN(C)C)cc2)cn1-c1ccc(Oc2ccc(Cl)cc2)cc1 [Example 3, (S)-1-(4-{2-butyl-1-[4-(4-chloro-phenoxy)-phenyl]-1H-imidazol-4-yl}-phenoxy)-3-dimethylamino-propan-2-ol dihydrochloride]
2.47 | 3.14 |  |  |  | CCNC[C@@H](O)COc1ccc(-c2cn(-c3ccc(Oc4ccc(Cl)cc4)cc3)c(COCC)n2)cc1 [Example 15, (R)-1-(4-{1-[4-(4-chloro-phenoxy)-phenyl]-2-ethoxymethyl-1H-imidazol-4-yl}-phenoxy)-3-ethylamino-propan-2-ol dihydrochloride]
0.85 | 0.66 | 626 | 18 | 34.1 | CCCCc1nc(-c2ccc(OC[C@H](O)CN(C)C)cc2)cn1-c1ccc(Oc2ccc(Cl)cc2)cc1 [Example 1, (R)-1-(4-{2-butyl-1-[4-(4-chloro-phenoxy)-phenyl]-1H-imidazol-4-yl}-phenoxy)-3-dimethylamino-propan-2-ol dihydrochloride]
